For data set [1], the target named is T1, NAD-dependent protein deacetylase sirtuin-7 (Homo sapiens, UniProt Q9NRC8).
T1 sequence (Q9NRC8 whole entry): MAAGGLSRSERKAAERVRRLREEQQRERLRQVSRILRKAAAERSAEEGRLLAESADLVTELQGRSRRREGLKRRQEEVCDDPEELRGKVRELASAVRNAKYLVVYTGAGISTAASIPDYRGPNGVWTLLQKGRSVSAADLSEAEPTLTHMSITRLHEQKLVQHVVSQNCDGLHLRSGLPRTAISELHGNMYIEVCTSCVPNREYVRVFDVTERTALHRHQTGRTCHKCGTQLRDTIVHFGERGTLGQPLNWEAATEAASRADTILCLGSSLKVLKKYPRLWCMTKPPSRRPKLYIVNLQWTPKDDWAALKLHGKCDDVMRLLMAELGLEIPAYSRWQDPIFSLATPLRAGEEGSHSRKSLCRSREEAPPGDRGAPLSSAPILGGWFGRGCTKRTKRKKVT
Description: Inhibition of tRNA-activated deacetylation activity of recombinant human full length N-terminal His6-tagged SIRT7 expressed in Escherichia coli using H2N-GGKAPR-[Nepsilon-acetyl-lysine]-QLATKA-CONH2 as substrate measured after 30 mins by HPLC analysis.

Data set [2] concerns the target T2, NAD-dependent protein deacetylase sirtuin-3, mitochondrial (Homo sapiens, UniProt Q9NTG7).
T2 sequence (Q9NTG7 whole entry): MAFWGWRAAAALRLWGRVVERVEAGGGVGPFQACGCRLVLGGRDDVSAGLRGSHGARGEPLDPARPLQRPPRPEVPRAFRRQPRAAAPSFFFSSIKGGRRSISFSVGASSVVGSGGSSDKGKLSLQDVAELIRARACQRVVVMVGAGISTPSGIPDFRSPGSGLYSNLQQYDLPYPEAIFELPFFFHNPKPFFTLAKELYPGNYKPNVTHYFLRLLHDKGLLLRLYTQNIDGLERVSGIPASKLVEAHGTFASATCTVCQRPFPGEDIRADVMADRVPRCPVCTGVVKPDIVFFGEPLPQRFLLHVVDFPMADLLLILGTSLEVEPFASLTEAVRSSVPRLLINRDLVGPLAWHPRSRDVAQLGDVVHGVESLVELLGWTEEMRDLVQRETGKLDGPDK
Briefly: Inhibition of deacetylation activity of recombinant human N-terminal His6-tagged SIRT3 (101 to 399 residues) expressed in Escherichia coli using H2N-HK-[Nepsilon-acetyl-lysine]-LM-COOH as substrate measured after 10 mins by HPLC analysis.

The target in data set [3] is T3, NAD-dependent protein deacetylase sirtuin-1 (Homo sapiens, UniProt Q96EB6).
T3 sequence (Q96EB6 whole entry): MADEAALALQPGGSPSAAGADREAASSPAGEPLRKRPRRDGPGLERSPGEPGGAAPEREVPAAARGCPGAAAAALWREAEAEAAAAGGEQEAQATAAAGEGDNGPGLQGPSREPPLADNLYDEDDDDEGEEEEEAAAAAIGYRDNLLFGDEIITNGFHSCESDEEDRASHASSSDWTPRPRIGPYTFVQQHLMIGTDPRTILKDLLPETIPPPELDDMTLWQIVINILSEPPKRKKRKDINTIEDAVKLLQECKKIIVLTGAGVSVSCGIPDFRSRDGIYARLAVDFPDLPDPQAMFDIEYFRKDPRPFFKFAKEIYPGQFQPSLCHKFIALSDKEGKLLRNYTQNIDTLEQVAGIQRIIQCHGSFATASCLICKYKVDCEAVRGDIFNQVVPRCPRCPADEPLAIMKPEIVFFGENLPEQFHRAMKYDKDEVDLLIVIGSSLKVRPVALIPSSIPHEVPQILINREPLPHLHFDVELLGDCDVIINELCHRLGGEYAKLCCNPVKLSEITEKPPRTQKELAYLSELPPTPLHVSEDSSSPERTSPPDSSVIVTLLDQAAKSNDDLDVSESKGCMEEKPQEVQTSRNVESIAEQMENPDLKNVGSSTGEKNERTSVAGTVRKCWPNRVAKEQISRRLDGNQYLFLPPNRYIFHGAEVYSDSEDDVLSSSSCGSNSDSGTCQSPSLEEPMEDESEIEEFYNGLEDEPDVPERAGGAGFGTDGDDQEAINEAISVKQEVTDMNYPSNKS
Description: Inhibition of recombinant human SIRT1 deacetylase activity using H2N-HK-[Nepsilon-acetyl-lysine]-LM-COOH as substrate measured after 10 mins by HPLC analysis.

Data set [4] is described as follows: Proteolytic stability of the compound assessed as Streptomyces griseus pronase-mediated compound hydrolysis by measuring parent compound remaining after 6 mins by HPLC method. As to conditions: read-out: Stability. In kind it is ADME.
Data set [5] concerns the target NAD-dependent protein deacylase sirtuin-6 (Homo sapiens, UniProt Q8N6T7). Briefly: Inhibition of demyristoylation activity of recombinant human full length N-terminal His6-tagged SIRT6 expressed in Escherichia coli using H2N-EALPK-[Nepsilon-myristoyl-lysine]-TGGPQ-CONH2 as substrate measured after 12 mins by HPLC analysis.
The target in data set [6] is T4, NAD-dependent protein deacetylase sirtuin-2 (Homo sapiens, UniProt Q8IXJ6).
T4 sequence (Q8IXJ6 whole entry): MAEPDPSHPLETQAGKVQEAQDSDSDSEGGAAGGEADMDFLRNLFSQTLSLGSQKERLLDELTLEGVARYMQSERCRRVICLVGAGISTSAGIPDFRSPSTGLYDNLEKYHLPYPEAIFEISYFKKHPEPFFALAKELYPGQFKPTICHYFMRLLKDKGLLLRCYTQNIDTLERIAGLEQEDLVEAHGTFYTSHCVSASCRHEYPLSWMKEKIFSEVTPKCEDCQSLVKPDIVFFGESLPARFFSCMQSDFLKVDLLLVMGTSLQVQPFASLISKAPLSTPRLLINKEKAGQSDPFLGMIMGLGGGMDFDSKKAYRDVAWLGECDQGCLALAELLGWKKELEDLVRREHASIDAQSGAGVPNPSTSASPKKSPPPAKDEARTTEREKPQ
Description: Inhibition of deacetylation activity of recombinant human N-terminal His6-tagged SIRT2 (2 to 389 residues) expressed in Escherichia coli using H2N-HK-[Nepsilon-acetyl-lysine]-LM-COOH as substrate measured after 12 mins by HPLC analysis.

Data set [7] concerns the target NAD-dependent protein deacylase sirtuin-5, mitochondrial (Homo sapiens, UniProt Q9NXA8). Briefly: Inhibition of desuccinylation activity of recombinant human full length N-terminal GST-tagged SIRT5 expressed in Escherichia coli using CH3CONH-AR-[Nepsilon-succinyl-lysine]-ST-CONH2 as substrate measured after 5 mins by HPLC analysis.

Structures are written as SMILES. Residues, ends and D or L forms follow the SMILES beside them.

This is an account of results in ChEMBL document CHEMBL4371077, “Cyclic tripeptide-based potent human SIRT7 inhibitors” (Bioorg Med Chem Lett, 2019).

Sequence of NAD-dependent protein deacylase sirtuin-6 (Q8N6T7 whole entry): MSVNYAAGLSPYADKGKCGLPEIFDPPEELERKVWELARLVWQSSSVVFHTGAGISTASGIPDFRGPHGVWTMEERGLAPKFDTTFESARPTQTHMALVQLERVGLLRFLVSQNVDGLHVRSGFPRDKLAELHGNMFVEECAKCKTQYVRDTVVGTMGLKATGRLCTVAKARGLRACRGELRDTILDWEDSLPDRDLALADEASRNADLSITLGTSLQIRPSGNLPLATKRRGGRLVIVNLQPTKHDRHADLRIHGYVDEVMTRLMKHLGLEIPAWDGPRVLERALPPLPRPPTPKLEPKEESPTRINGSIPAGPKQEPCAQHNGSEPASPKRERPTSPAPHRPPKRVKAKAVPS
Sequence of NAD-dependent protein deacylase sirtuin-5, mitochondrial (Q9NXA8 whole entry): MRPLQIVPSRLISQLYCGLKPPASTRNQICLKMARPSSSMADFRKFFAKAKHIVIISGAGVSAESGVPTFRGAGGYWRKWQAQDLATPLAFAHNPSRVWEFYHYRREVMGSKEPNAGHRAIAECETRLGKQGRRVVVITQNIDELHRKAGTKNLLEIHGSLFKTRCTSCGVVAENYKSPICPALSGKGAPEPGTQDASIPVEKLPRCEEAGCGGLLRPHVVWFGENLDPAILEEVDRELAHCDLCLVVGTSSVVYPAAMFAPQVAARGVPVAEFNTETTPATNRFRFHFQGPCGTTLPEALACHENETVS

In the case of `CCCCCCCCCCCCCCNC(=S)NCCCC[C@@H]1NC(=O)[C@H](CCCNC(=N)N)NC(=O)CNC(=O)CCC(=O)NCC(=O)NCCCC[C@@H](C(N)=O)NC1=O`, the IC50 (commonly the point on the concentration scale where inhibition reaches its midpoint) in data set [1] stood at 85.3 µM.

Consider `CCCCCCCCCCCCNC(=S)NCCCC[C@@H]1NC(=O)[C@H](CCCNC(=N)N)NC(=O)CNC(=O)CCC(=O)NCC(=O)NCCCC[C@@H](C(N)=O)NC1=O`, for which the concentration for half-maximal inhibition (IC50) was 1.6 µM in data set [2]; 1.8 µM in data set [3]; 7.9 µM in data set [5]; 10.3 µM in data set [6]; greater than 150 µM in data set [7]; 11.1 µM in data set [1]. Moreover, the remaining at 0.1 h in data set [4] came out at 55.7%.

For `CCCCCCCCCCCCNC(=O)CCCCC[C@@H]1NC(=O)[C@H](CCCNC(=N)N)NC(=O)CNC(=O)CCC(=O)NCC(=O)NCCCC[C@@H](C(N)=O)NC1=O`, the half-inhibitory concentration (IC50) in data set [2] was 4.2 µM; in data set [3], 4.3 µM; in data set [5], 11.2 µM; in data set [6], 0.55 µM; in data set [7], greater than 200 µM; in data set [1] it was 5 µM. For the same molecule, the remaining at 0.1 h in data set [4] stood at 89.9%.

Regarding `CSCC[C@H](NC(=O)[C@H](CC(C)C)NC(=O)[C@H](CCCCNC(C)=O)NC(=O)[C@H](CCCCN)NC(=O)[C@@H](N)Cc1cnc[nH]1)C(=O)O` (H-HKK(Ac)LM-OH), the remaining at 0.1 h in data set [4] amounted to 51.1%.
